Here are results for eleven compounds from patent US6531462B2, “Medicament for treating obesity and improving lipid metabolism” (priority 1997, dated 2003).

SMILES strings stand for the structures. “Also recorded” adds a separate entry of the source.

The nature of data set [1]: Example 1: serum lipids and serum metabolites of mice fed feed supplemented with 0.5% test compound. It is filed as in vivo. The conditions noted are these: for Serum cholesterol / Serum neutral fats: ratio relative to the non-treated control group. As for the experimental part:
(§1) 5-Sitosten-3-one was prepared according to the method of Parish (Parish, E. J., et al., Synthetic Communication, 22, pp.2839-2847, 1992) by using β-sitosterol (Tokyo Chemical Industry Co., Ltd.) as a starting material and used in the experiments. The content ratio of 24-ethyl and 24-methyl compounds in the synthesized product was 6.5:3.5. As experimental animals, six CDF1 male mice (5-week old, Charles River Japan Inc.) were used in each experimental group. The animals were fed in aluminum cages for mice, and allowed to feed and water ad libitum. The animals were fed for 2 weeks under feeding conditions at a temperature of 24±1° C. and a relative humidity of 55±5%, where light and darkness were controlled to change every 12 hours, and each cage and floor mat (white flakes) were exchanged twice a week.
(§2) Modified AIN (Oriental Yeast Co.) was used as basic feed and mixed with 0.5% 5-sitosten-3-one to prepare test feeds. A feed used as a positive control was prepared by adding 0.5% of 4-cholesten-3-one (Japanese Patent Unexamined Publication No. Hei 5-170651/1993) to the basic feed. Non-treated mice as a control were fed solely with the basic feed. The basic feed was composed of 22.8% crude protein, 54.1% carbohydrates, 6.0% lipids, 4.9% fibers, 2.9% ash, and 8.7% water, and its calorie was 1,523 kJ. The feed was stored at 4° C. after preparation, and a fresh feed was supplied every day.
(§3) The animals were weighed at given intervals of time, and the average values and standard errors of the experimental groups were determined. In addition, feed consumptions were measured at given intervals of time and daily averages per mouse were determined. The animals were observed every day. After the end of the feeding, the animals were anesthetized to death with carbon dioxide gas, and bloods were collected from the vena cava to obtain serums. The animals were autopsied, and the brains, lungs, hearts, livers, spleens, kidneys, testis, adrenals and intraperitoneal fat were examined by the naked eye and weighed. As to serum lipid, neutral fats were measured by using a clinical test kit based on the enzyme method (Triglyceride-E Test, Wako Pure Chemicals Industries Co., Ltd.), and total cholesterol and cholestanol were measured by the method of Kasama (T. Kasama, et al., J. Chromatogr., 400, 241, 1987) with modifications, where the amount of benzoyl chloride was increased by 10 times, the reaction time was doubled, and the measurement was performed by using a high performance liquid chromatography system. Significant differences were determined by t-test for body weights and serum lipids on the basis of the non-treated control mice.

The nature of data set [2]: Example 1: body weight, body fat and feed intake of mice fed feed supplemented with 0.5% test compound. It is filed as in vivo, CDF1 male mice. The note with it: ratio relative to the non-treated control group, CDF1 mice. How it is done: as §1, §2, §3
Data set [3] in a line: Example 4: body weight and body fat of mice fed 0.5% test compound for 14 days. The data set is classed as in vivo, CDF1 male mice. The note with it: 0.5% in feed; for Intraperitoneal fat: mean (n=6) ± standard error; for Decrease of body fat: versus non-treated mice. As for the experimental part: (§4) 5-Campesten-3-one was prepared from campesterol (>97%, Tama Biochemical Industry, Ltd.). 4-Sitosten-3,6-dione was prepared from β-sitosterol (>65%, Tokyo Chemical Industry Co., Ltd.) and obtained as a mixture of 24-ethyl compound and 24-methyl compound (2:1). 5-Stigmasten-3-one was prepared from stigmasterol (>94%, Tokyo Chemical Industry, Co., Ltd.). As experimental animals, six CDF1 male mice (5-week old, Charles River Japan Inc.) were used in each experimental group. Modified AIN (Oriental Yeast Co.) was used as basic feed and mixed with 0.5% of each test compound to prepare test feeds. The animals were allowed to feed with the test food ad libitum for 14 days. Measurements of body weights and observations of general conditions of the animals were carried out twice a week, and the animals were subjected to autopsy and their bloods were collected. Serum lipid analysis was conducted by using a clinical test kit based on the enzymatic method (Wako Pure Chemicals Industries Co., Ltd.). Significances of the resulting values were examined by the one-way analysis of variance with pairwise comparison (ANOVA) according to the Bonferroni method. Other conditions were the same as those described in Example 1.

Data set [4] is described as follows: Example 4: serum lipid concentration of mice fed 0.5% test compound for 14 days. It is filed as in vivo, CDF1 male mice. The conditions noted are these: 0.5% in feed; for Total cholesterol / Triglyceride: mean (n=6) ± standard error. As for the experimental part: as §4
Data set [5] in a line: Example 2: serum (plasma) lipid concentrations of mice fed 0.5% test compound. The data set is classed as in vivo, CDF1 male mice. The note with it: 0.5% in feed; for Free fatty acid / HDL-cholesterol / Phospholipid / Total cholesterol / Triglyceride: mean (n=6) ± standard error. The text has this: (§5) As 24-alkylcholesten-3-ones, (1) 4-sitosten-3-one, (2) 6α-hydroxy-4-sitosten-3-one, and (3) 6-hydroxy-4-sitosten-3-one (α:β=2.6:1) were synthesized by using β-sitosterol (Tokyo Chemical Industries Co., Ltd.). The content ratio of 24-ethyl and 24-methyl compounds in the synthesized product was 6.5:3.5. As experimental animals, six CDF1 male mice (5-week old, Charles River Japan Inc.) were used in each experimental group. A purified feed (Modified AIN, Oriental Yeast Co.) was used as a basic feed and mixed with 0.5% test compounds to prepare test feeds. The animals were allowed to feed and water ad libitum. The animals were weighed and observed to examine general conditions twice a week. The animals were subjected to autopsy after the end of the feeding, and their bloods were collected. Lipid concentrations in the separated serums were measured by using a clinical test kit based on the enzyme method (Wako Pure Chemicals Industries Co., Ltd.). Significances of the resulting experimental values were examined by the variance analysis. The other experimental conditions were the same as in Example 1.

A short description of data set [6]: Example 2: body weight, feed intake, feed efficiency and intraperitoneal fat of mice fed 0.5% test compound. The data set is classed as in vivo, CDF1 male mice. The note with it: 0.5% in feed; for Feed efficiency (body weight gain/feed intake): 14 days; for Intraperitoneal fat: mean (n=6) ± standard error; for Body weight gain: total for 14 days; for Decrease of intraperitoneal fat: versus control.
Description: as §5

Setting [7] is: male, CDF1, mouse, in vivo, 2 weeks.

Consider `CC(C)CCC[C@@H](C)[C@H]1CC[C@H]2[C@@H]3CC(=O)C4=CC(=O)CC[C@]4(C)[C@H]3CC[C@]12C` [4-Cholestene-3,6-dione], for which, in data set [1] (setting [7]), the Serum metabolite amounted to 0. In data set [1] (CDF1 mice), the Serum cholesterol was 60% and the Serum neutral fats came to 36%. Besides, in data set [2], the Body weight gain is listed as −62% and the Intraperitoneal fat is on record as 23%.

Take `CC[C@H](CC[C@@H](C)[C@H]1CC[C@H]2[C@@H]3CC(=O)C4=CC(=O)CC[C@]4(C)[C@H]3CC[C@]12C)C(C)C` [4-Sitosten-3,6-dione]: in data set [3], the “Effect on the increase of body weight (FIG. 6)” value is reported as “Significant inhibitory effects”, the Intraperitoneal fat amounted to 472.7 ± 37.7 mg and the “Decrease of body fat” value was approximately 40%. Further, in data set [4], the “Decrease of serum total cholesterol concentration” value is given as approximately 18%, the “Decrease of serum triglyceride concentration” value is listed as approximately 66%, the Total cholesterol came to 156.3 ± 6.4 mg/dL and the Triglyceride was found to be 85.8 ± 9.2 mg/dL.

On to `CC[C@H](CC[C@@H](C)[C@H]1CC[C@H]2[C@@H]3CCC4=CC(=O)CC[C@]4(C)[C@H]3CC[C@]12C)C(C)C` [4-Sitosten-3-one, 4-sitosten-3-one], for which, in data set [5], the Free fatty acid was found to be 0.92 ± 0.03 mEq/dl, the HDL-cholesterol is 42.4 ± 6.36 mg/dL, the Phospholipid was found to be 271.0 ± 9.5 mg/dL and the Total cholesterol was found to be 151.4 ± 5.7 mg/dL. The compound also yielded a Triglyceride in data set [5] of 130.9 ± 4.9 mg/dL. Further, in data set [6], the “Feed efficiency (change)” value was “only slight changes”, the “Suppression of body weight (FIG. 3)” value was “no significant suppression”, the “Feed efficiency (body weight gain/feed intake)” value is on record as 0.087 and the Intraperitoneal fat is 841.5 ± 69.0 mg. In data set [6], the Body weight gain is 3.71 g/mouse and the “Decrease of intraperitoneal fat” value is “not signilficant”.

As for `CC(C)CCC[C@@H](C)[C@H]1CC[C@H]2[C@@H]3CC[C@@H]4CC(=O)CC[C@]4(C)[C@H]3CC[C@]12C` [5 β-Cholestan-3-one, 5β-cholestan-3-one], in data set [1] (metabolite of the test compound detected in serum, CDF1 mice), the Serum metabolite result is “Cholestanol”. Besides, the Serum metabolite result in data set [1] (metabolite of the test compound detected in serum, CDF1 mice, listed as 5β-cholestan-3-one) is listed as “cholestanol or coprostanol”. Further, in data set [1] (CDF1 mice), the Serum cholesterol is 75% and the Serum neutral fats came out at 70%. Besides, in data set [2], the Body weight gain came out at 51% and the Intraperitoneal fat is on record as 71%.

For `CC(C)[C@H](C)CC[C@@H](C)[C@H]1CC[C@H]2[C@@H]3CC=C4CC(=O)CC[C@]4(C)[C@H]3CC[C@]12C` [5-Campesten-3-one, 5-campesten-3-one (24-methylcholest-5-en-3-one)], in data set [3], the “Effect on the increase of body weight (FIG. 6)” value is “Significant inhibitory effects; also recorded: remarkably suppressed”, the Intraperitoneal fat turned out to be 86.4 ± 19.9 mg and the “Decrease of body fat” value is given as “about 90%”. In addition, in data set [4], the “Decrease of serum total cholesterol concentration” value is “about 34%”, the “Decrease of serum triglyceride concentration” value is on record as “about 45%”, the Total cholesterol amounted to 125.8 ± 4.0 mg/dL and the Triglyceride is 138.9 ± 18.7 mg/dL.

Regarding `CC(C)CCC[C@@H](C)[C@H]1CC[C@H]2[C@@H]3CC=C4CC(=O)CC[C@]4(C)[C@H]3CC[C@]12C` [5-Cholesten-3-one], in data set [1] (setting [7]), the Serum metabolite amounted to 0. In data set [1] (CDF1 mice), the Serum cholesterol was 68% and the Serum neutral fats was 30%. Moreover, in data set [2], the Body weight gain is reported as −16% and the Intraperitoneal fat came to 37%.

Consider `CC(C)CCC[C@@H](C)[C@H]1CC[C@H]2[C@@H]3C[C@@H](Br)C4=CC(=O)CC[C@]4(C)[C@H]3CC[C@]12C` [6 β-Bromo-4-cholesten-3-one, 6β-bromo-4-cholesten-3-one], for which, in data set [1] (CDF1 mice), the Serum cholesterol is recorded as 98% and the Serum neutral fats amounted to 89%. Further, in data set [2], the Body weight gain came to 48% and the Intraperitoneal fat came out at 62%.

With `CC(C)CCC[C@@H](C)[C@H]1CC[C@H]2[C@@H]3CC(O)C4=CC(=O)CC[C@]4(C)[C@H]3CC[C@]12C` (stereo partly drawn) [6-Hydroxy-4-cholesten-3-one], in data set [1] (setting [7]), the Serum metabolite was 0. Moreover, in data set [1] (CDF1 mice), the Serum cholesterol amounted to 80% and the Serum neutral fats is on record as 47%. Also, in data set [2], the Body weight gain worked out at 50% and the Intraperitoneal fat was 63%.

As to `CC[C@H](CC[C@@H](C)[C@H]1CC[C@H]2[C@@H]3CC(O)C4=CC(=O)CC[C@]4(C)[C@H]3CC[C@]12C)C(C)C` (stereo partly drawn) [6-Hydroxy-4-sitosten-3-one (α:β = 2.6:1), 6-hydroxy-4-sitosten-3-one (α:β=2.6:1)], in data set [5], the “Total cholesterol and phospholipid concentrations in plasma” value was “significantly decreased”; the Free fatty acid came out at 0.77 ± 0.03 mEq/dl; the HDL-cholesterol came to 45.0 ± 5.8 mg/dL; the Phospholipid worked out at 211.9 ± 5.1 mg/dL. In data set [5], this compound had a Total cholesterol of 133.3 ± 5.7 mg/dL and a Triglyceride of 76.5 ± 5.2 mg/dL. Further, in data set [6], the “Feed efficiency (change)” value is “remarkable decrease”, the “Suppression of body weight (FIG. 3)” value was “potent suppressing effects”, the “Feed efficiency (body weight gain/feed intake)” value stood at 0.044 and the Intraperitoneal fat is 481.8 ± 51.9 mg. For the same compound, in data set [6], the Body weight gain is 1.82 g/mouse and the “Decrease of intraperitoneal fat” value stood at 50%.

Regarding `CC[C@H](CC[C@@H](C)[C@H]1CC[C@H]2[C@@H]3C[C@H](O)C4=CC(=O)CC[C@]4(C)[C@H]3CC[C@]12C)C(C)C` [6α-Hydroxy-4-sitosten-3-one, 6α-hydroxy-4-sitosten-3-one], in data set [5], the “Total cholesterol and phospholipid concentrations in plasma” value is reported as “significantly decreased”; the Free fatty acid is 0.69 ± 0.04 mEq/dl; the HDL-cholesterol worked out at 36.7 ± 4.7 mg/dL; the Phospholipid turned out to be 209.6 ± 7.8 mg/dL. Besides, in data set [5], the Total cholesterol is 142.5 ± 5.1 mg/dL and the Triglyceride amounted to 66.8 ± 3.5 mg/dL. Moreover, in data set [6], the “Feed efficiency (change)” value is recorded as “remarkable decrease”, the “Suppression of body weight (FIG. 3)” value is reported as “potent suppressing effects”, the “Feed efficiency (body weight gain/feed intake)” value came to 0.022 and the Intraperitoneal fat came to 369.8 ± 22.5 mg. Also, in data set [6], the Body weight gain came out at 0.86 g/mouse and the “Decrease of intraperitoneal fat” value came to 60%.

As to `CC(C)CCC[C@@H](C)[C@H]1CC[C@H]2[C@@H]3C=CC4=CC(=O)CC[C@]4(C)[C@H]3CC[C@]12C` [Colesta-4,6-dien-3-one], in data set [1] (CDF1 mice), the Serum cholesterol was 63% and the Serum neutral fats was 60%. In addition, in data set [2], the Body weight gain stood at 59% and the Intraperitoneal fat was found to be 69%.
